Substitutions are numbered along the chain they refer to. Like-named read-outs stand apart in the source and are kept apart here.
Tests used:
[1] = target: T1, His-TEV-AtPP01 ΔcTP L479N (SEQ ID NO: 372) (Arabidopsis thaliana, UniProt P55826, L479N); experiment: PPO fluorescence IC50 assay, partially purified enzyme; type: biochemical
T1 construct: with cTPs removed; made in house; host or cells: E. coli BL21 (DE3), His GraviTrap, partially purified
T1 sequence (P55826 with tags, fused parts or gaps L479N): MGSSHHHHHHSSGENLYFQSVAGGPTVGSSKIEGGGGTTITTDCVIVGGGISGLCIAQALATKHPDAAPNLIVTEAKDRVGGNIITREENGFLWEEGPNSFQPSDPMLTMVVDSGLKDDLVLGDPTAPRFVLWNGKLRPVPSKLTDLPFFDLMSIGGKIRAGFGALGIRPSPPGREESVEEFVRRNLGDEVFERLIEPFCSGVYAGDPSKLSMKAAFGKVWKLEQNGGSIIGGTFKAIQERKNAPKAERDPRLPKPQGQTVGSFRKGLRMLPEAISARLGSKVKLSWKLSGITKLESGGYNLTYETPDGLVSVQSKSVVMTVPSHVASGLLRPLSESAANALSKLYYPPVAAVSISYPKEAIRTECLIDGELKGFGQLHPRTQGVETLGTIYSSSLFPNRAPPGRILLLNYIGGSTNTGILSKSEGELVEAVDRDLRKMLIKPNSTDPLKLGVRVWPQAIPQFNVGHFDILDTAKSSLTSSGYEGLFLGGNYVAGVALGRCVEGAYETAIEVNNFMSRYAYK
Excerpt: (§1) A pET24 plasmid containing a DNA sequence encoding variants of AtPPO1 derived from Arabidopsis thaliana with cTPs removed and both a 6×His tag and TEV protease cleavage tag added at the N-terminus, codon-optimised for expression in E. coli, and under control of a T7 promoter, was synthesised by Twist Bioscience. The following variants were synthesised: WT AtPPO1 (SEQ ID NO: 370), AtPPO1 L479M (SEQ ID NO: 371), AtPPO1 L479N (SEQ ID NO: 372), AtPPO1 S305L Y426V (SEQ ID NO: 374) and AtPPO1 S305L Y426V L479M (SEQ ID NO: 373). This plasmid was expressed in E. coli BL21 (DE3) with 50 μg/mL kanamycin selection. 10 mL of overnight cultures grown at 37° C. were used to inoculate 1 L AIM (AIM-Terrific Broth Base including Trace elements, Formedium) in 2 L shake flasks. Cultures were grown at 37° C., 200 rpm for 3 hours and then overnight at 26° C. Cells were harvested centrifugation. 5-15 g of cell pellet was lysed in and resuspended in ratio of 1:1.5 in lysis buffer (20 mM Tris pH8, 500 mM sodium chloride, 10% glycerol, 1× complete Protease EDTA-free Inhibitor Tablet (Roche), 10 mM imidazole). The resuspension was sonicated at 75% using 10 cycles of 30 seconds, 40 seconds off. After sonication Triton X-100 was added to the lysates at a final concentration of 0.5%. The lysates were centrifuged at 20,000 rpm for 25 min at 4° C. Cleared lysates were loaded on His GraviTrap (Cytiva) columns, washed with 20 mL of lysis buffer and eluted in elution buffer (20 mM Tris pH8, 500 mM sodium chloride, 10% glycerol, 200 mM imidazole, 0.03% (v/v) Triton X-100). The eluate was desalted on a PD10 column and 2.5-3.2 mL was collected. Protein concentration was measured and calculated using the absorbance at 280 nm. Extracts were diluted 1 in 4 and 10 uL was analysed by SDS PAGE.
(§2) Partially purified Protoporphyrinogen Oxidase enzymes were assayed for activity using fluorescence adapted from the method of Shepherd & Dailey (Anal Biochem. 2005 344(1) 115-121). The assay was performed in black 384 well plates with a clear bottom and the total volume of the reaction mixture was 91 ul. The final assay mixture contained 100 mM K2HPO4 pH7.2, 1 mM Na2EDTA, 5 mM DTT, 20% glycerol (v/v), 0.05% Tween 20 (v/v), 1.1% DMSO (v/v), 1 uM protoporphyrinogen IX and 1.5 nM enzyme. Compounds were dissolved in DMSO at 1 mM and a 4-fold serial dilution carried out to give 8 rates. 1 ul was added to the assay mixture. This gave final compound concentrations of 11, 2.7, 0.69, 0.17, 0.04, 0.01, 0.002, 0.0007 uM. Enzyme and inhibitor were preincubated for 5 minutes prior to starting the reaction with the addition of the substrate. […] IC50s were calculated using GraphPad Prism 7.05 nonlinear regression (Table 6). Each compound was tested in duplicate.

[2] = target: T2, His-TEV-AtPPO1 ΔcTP V002 (SEQ ID NO: 373) (Arabidopsis thaliana, UniProt P55826, L479M/S305L/Y426V); experiment: as above; type: biochemical
T2 construct: with cTPs removed; made in house; host or cells: E. coli BL21 (DE3), His GraviTrap, partially purified
T2 sequence (P55826 with tags, fused parts or gaps S305L/Y426V/L479M): T1 sequence (P55826 with tags, fused parts or gaps L479N) with S290L, Y411V, N464M
Excerpt: as §1, §2

[3] = role: inhibitor, 1 uM protoporphyrinogen IX, <1.0 is below detection limit of assay

Row | Compound | IC50 [1] [nM] | IC50 [2] [nM] | IC50 [1, 3] [nM] | IC50 [2, 3] [nM]
1 | C#CCN1C(=O)COc2cc(F)c(N3C(=O)C4=C(CCCC4)C3=O)cc21 [Flumioxazin, flumioxazin] | 1 | 187 |  | 
2 | CC(C)Oc1cc(-n2nc(C(C)(C)C)oc2=O)c(Cl)cc1Cl [Oxadiazaon] | 6.1 | 5620 |  | 
3 | CC(C)N(C)S(=O)(=O)NC(=O)c1cc(-n2c(=O)cc(C(F)(F)F)n(C)c2=O)c(F)cc1Cl [Herbicide E, saflufenacil] | 2.6 | 998 |  | 
4 | C#CCN1C(=O)C(F)(F)Oc2cc(F)c(-n3c(=O)n(C)c(=S)n(C)c3=O)cc21 [Herbicide B, trifludimoxazin] | 1 | 2.1 |  | 
5 | CS(=O)(=O)NC(=O)c1cc(Oc2ccc(C(F)(F)F)cc2Cl)ccc1[N+](=O)[O-] [Fomesafen, fomesafen] | 1.4 | 0.5 |  | 
6 | CCOC(=O)COc1ncccc1Oc1cc(-n2c(=O)cc(C(F)(F)F)n(C)c2=O)c(F)cc1Cl [Herbicide A, epyrifenacil] | 0.9 | 447 |  | 
7 | CCOC(=O)COc1cc(-c2nn(C)c(OC(F)F)c2Cl)c(F)cc1Cl [Pyraflufen-ethyl, pyraflufen-ethyl] | 0.8 | 24.2 |  | 
8 | CCOC(=O)C1(C)CC(c2cc(-n3c(=O)cc(C(F)(F)F)n(C)c3=O)c(F)cc2Cl)=NO1 (centres unmarked) [Herbicide C, 3-(2-chloro-4-fluoro-5-(3-methyl-2,6-dioxo-4-trifluoromethyl-3,6-dihydropyrimidin-1(2H)-yl)phenyl)-5-methyl-4,5-dihydroisoxazole-5-carboxylic acid ethyl ester] | 0.9 | 121 |  | 
9 | COC(=O)C(C)ON=Cc1cc(-n2c(=O)cc(C(F)(F)F)n(C)c2=O)c(F)cc1Cl (centres unmarked) [Flufenoximacil, flufenoximacil] |  |  | 0.8 | 863
10 | CCOC(=O)[C@]1(C)CC(c2cc(-n3c(=O)n(C)c(=S)n(C)c3=O)c(F)cc2Cl)=NO1 [Herbicide D, ethyl (5S)-3-[2-chloro-5-(3,5-dimethyl-2,6-dioxo-4-thioxo-1,3,5-triazinan-1-yl)-4-fluoro-phenyl]-5-methyl-4H-isoxazole-5-carboxylate] | 0.8 | 335 |  | 
11 | C#CCN(C)c1c(C#N)cnn1-c1nn2c(c1Cl)CCCC2 [Pyraclonil] | 1.5 | 5560 |  | 
12 | C=CCOC(=O)C(C)(C)OC(=O)c1cc(-n2c(=O)cc(C(F)(F)F)n(C)c2=O)ccc1Cl [Butafenacil, butafenacil] | 0.9 | 12.5 |  | 
13 | C#CCOc1cc(-n2nc3n(c2=O)CCCC3)c(Cl)cc1Cl [Azafenadin] | 0.8 | 149 |  | 
